Assay results reported in the supplement of paper PMC10477900.
Counter-ions that a name gives are not always drawn.

Experiments:
[1] = tested on: HCT116; experiment: viability inhibition vs untreated; higher = more cytotoxic; conditions: 72 h
[2] = tested on: HCT116; conditions: 72 h
Method: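 HCT116 control and MTA1-KO (CRISPR) HCT116 cells were seeded in 384-well plates (800 cells/well), treated 16 h later with 237 metabolism-related anticancer drugs at five doses (10 uM, 2 uM, 400 nM, 80 nM, 16 nM) for 72 h, two replicates; viability by CCK8. Values are % inhibition of viability relative to untreated cells, plus fitted IC50.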

SMILES	viability inhibition ([1]; genotype: MTA1-KO, 16 nM) [%]	viability inhibition ([1]; genotype: MTA1-KO, 80 nM) [%]	viability inhibition ([1]; genotype: MTA1-KO, 400 nM) [%]	viability inhibition ([1]; genotype: MTA1-KO, 2000 nM) [%]	viability inhibition ([1]; genotype: MTA1-KO, 10000 nM) [%]	viability inhibition ([1]; genotype: control, 16 nM) [%]	viability inhibition ([1]; genotype: control, 80 nM) [%]	viability inhibition ([1]; genotype: control, 400 nM) [%]	viability inhibition ([1]; genotype: control, 2000 nM) [%]	viability inhibition ([1]; genotype: control, 10000 nM) [%]	IC50 ([2]; genotype: MTA1-KO) [µM]	IC50 ([2]; genotype: control) [µM]
CC(=O)O[C@H]1[C@H]2O[C@]23[C@@H]2CC[C@@H]4C[C@@H](O)CC[C@]4(C)[C@H]2CC[C@]3(C)[C@H]1c1ccc(=O)oc1 [Cinobufagin]	51.8	51.6	84.4	88.9	92.1	19.9	58.1	96.5	96.5	94.8	< 0.016	0.0795
CCC(C)(Oc1ccc(C2(c3ccc(OC(C)(CC)C(=O)O)cc3)CCCCC2)cc1)C(=O)O (stereo unspecified) [Clinofibrate]	12.9	5.15	19.9	28	51.7	-13.2	-10	-7.17	-15.8	0.951	> 10	> 10
Nc1nc(Cl)nc2c1ncn2[C@@H]1O[C@H](CO)[C@@H](O)[C@@H]1F [Clofarabine]	-2.4	4.43	55.5	80.4	75.8	-9.53	-5	88.4	88.9	92.8	0.257	0.141
Clc1ccccc1C(c1ccccc1)(c1ccccc1)n1ccnc1 [Clotrimazole]	-16.8	-16.8	-15	-23.3	-4.67	0.201	-0.602	-4.37	-8.31	2.92	> 10	> 10
CC(=O)OC(C)(C)/C=C/C(=O)[C@](C)(O)[C@H]1[C@H](O)C[C@@]2(C)[C@@H]3CC=C4[C@@H](C[C@H](O)C(=O)C4(C)C)[C@]3(C)C(=O)C[C@]12C [Cucurbitacin B]	-3.8	-16.3	58.7	66.6	79.9	-19.7	-9.21	33.3	49.7	58.9	0.34	4.56
COc1cc(/C=C/C(=O)CC(=O)/C=C/c2ccc(O)c(OC)c2)ccc1O [Curcumin]	-19.2	-16.2	-19.6	-14.2	61.7	-1.96	7.36	-4.61	4.83	60.8	7.8	7.85
Nc1cccc(S(=O)(=O)N2CCCN(S(=O)(=O)c3ccc4c(c3)OCCO4)CC2)c1 [DASA58]	-0.728	-19.4	-15.8	-12.1	75	-13.2	-25.9	-13.7	-17.4	-6.72	6.95	> 10
Cc1ccc(NC(=O)Nc2cc(-c3ccccc3-c3nn[nH]n3)ccc2N(CC(C)C)CC(C)C)cc1 [DO-IN-2]	-2.66	13.6	7.91	10.9	-6.41	4.06	0.568	-3.13	-1.86	41.6	> 10	> 10
COc1ccc(Cc2cnc(N)nc2N)cc1OC [Diaveridine]	9.72	-12.4	-14.2	-12.8	8.55	7.02	-9.3	-5.19	-12.6	10.2	> 10	> 10
CC1=NS(=O)(=O)c2cc(Cl)ccc2N1 [Diazoxide]	7.55	5.32	16.2	16	35.1	3.13	23.2	0.951	4.98	3.64	> 10	> 10
NS(=O)(=O)c1cc(Cl)c(Cl)c(S(N)(=O)=O)c1 [Dichlorphenamide]	6.61	-0.189	-0.404	-3.85	16.5	-20.7	-6.03	-16.5	-12.6	-18.3	> 10	> 10
O=c1oc2ccccc2c(O)c1Cc1c(O)c2ccccc2oc1=O [Dicumarol]	4.75	8.83	21.4	67.8	64.3	10.4	23.6	22.5	66.6	65.9	0.444	0.54
CCN(CC)C(=S)SSC(=S)N(CC)CC [Disulfiram]	-26.6	-25.2	-25.3	-20.1	-18.3	-6.96	-11.2	-6.9	-8.44	-2.88	> 10	> 10
c1cc(-c2cnn3cc(-c4ccc(OCCN5CCCCC5)cc4)cnc23)ccn1 [Dorsomorphin dihydrochloride]	-1.27	-9.68	3.35	4.71	43.6	-2.17	-2.84	-1.4	7.12	55.1	> 10	8.54
c1cc(-c2cnn3cc(-c4ccc(OCCN5CCCCC5)cc4)cnc23)ccn1 [Dorsomorphin]	1.25	-13.4	-12.4	-11.7	-1.25	19.5	29.9	18.4	20.9	19.6	> 10	> 10
CCN[C@H]1C[C@H](C)S(=O)(=O)c2sc(S(N)(=O)=O)cc21 [Dorzolamide hydrochloride]	-14.8	-12.5	-7.44	-8.97	-17.4	-5.26	-2.58	-9.91	-10	-10.3	> 10	> 10
CC(C)(CCCCCC(O)CCCCCC(C)(C)C(=O)O)C(=O)O [ETC1002]	2.14	-10.3	-6.64	-17.1	-9.91	10.7	-0.834	-5.92	-6.48	-5.51	> 10	> 10
NCCCC(N)(C(=O)O)C(F)F (stereo unspecified) [Eflornithine hydrochloride Monohydrate]	-16.1	-27.6	-24	-21.9	-20.4	11.3	1.76	-3.16	0.852	61.6	> 10	9.47
